These results are taken from patent US10774076B2, “Benzazole compounds and methods for making and using the compounds” (Rigel Pharmaceuticals, Inc., priority 2015, dated 2020).

In one assay the test system is IL23p19. Put plainly: LPS Induced IL23p19 in THP-1 Cells (with IFNγ Primed) Assay. Type of assay: cell-based. The following applies: Homo sapiens, IFNγ primed (50 ng/mL), LPS 1 ug/mL, 18 hours, 10 pt, read-out: IL23-p19 ELISA, THP1-IFNy, LPS, 10 pt EC50. The source says: LPS Induced IL23p19 in THP-1 Cells (with IFNγ Primed) Assay
THP-1 Cells (ATCC, Cat # TIB-202), Dimethyl Sulfoxide (DMSO) (Sigma-Aldrich, Cat # D2650), RPMI 1640 (Cellgro, Cat #10-040-CM), Fetal Bovine Serum (Sigma, Cat # F4135), Albumin From Bovine Serum (BSA) (Sigma-Aldrich, Cat # A7906), LPS (Serotype K-235, Sigma, Product Number L 2143), IFNγ (Peprotech, Cat #300-02)
Capture antibody: Human IL-23p19 ELISA (e-Bioscience, Cat. #14-7238-85),
Detection antibody: Primary Mouse Biotinylated anti-human IL-12(p40/p70) (e-Bioscience, Cat. #13-7129-85), Secondary HRP-conjugated Streptavidin (R&D Systems, Cat # DY998), 1×PBST Washing Buffer (PBS-Tween tablet) (VWR International, Cat #80058-558), ELISA Blocking Buffer (PBS with 1% BSA), ELISA Dilution Buffer (PBS with 1% BSA), 384 Well Flat-Bottom, MaxiSorp Black Immuno Plates (Thermo Scientific, Cat #12-565-346), 384 Well Flat-Bottom, White Tissue Culture Plates (Thermo Scientific, Cat #12-565-343), Super Signal ELISA Pico Chemiluminescent Substrate (Thermo Scientific, Cat #37070), Cell Titer Glo reagent (Promega, Cat # G7573), Positive control, IKK2VI inhibitor (Calbiochem, Cat #401483), AquaMax 4000 plate washer (Molecular Devices), Luminometer, Wallac Victor2 1420 Multilabel Counter. Method THP-1 Cells Stimulation:
On day 1, 50K/well THP-1 cells were seeded and primed with IFNγ (50 ng/mL) in 384-well plates for about 18 hours in RPMI media with 10% FBS. On day 2, the compound was serially diluted in DMSO from 5 mM in 3-fold dilutions, and then diluted 1:125 in RPMI media with 10% FBS. 50 μL/well 2× compound was added to 50 μL/well THP-1 cells (with IFNγ primed) in duplicate in 384 well tissue culture plates. The cells were pre-incubated with compound for 1 hour at 37° C., 5% CO2 before addition of 10 μL/well 11×LPS to give a final concentration of 1 ug/mL LPS. Day 3, after stimulation for 18 hours at 37° C., 5% CO2, the assay plate was centrifuged and 70 μL/well supernatant was harvested. IL-23p19 protein in 70 μL/well of supernatant was measured by sandwich ELISA, and 25 μl/well Cell Titer Glo reagent was added to the remaining cells to measure compound toxicity.
Human IL-23p19 Sandwich ELISA:
Maxisorp immuno ELISA plates were pre-coated with 25 μL/well of anti-IL-23p19 capture antibody (2.5 ug/mL) in PBS overnight at room temperature. After washing with 1×PBST, the plates were blocked using 100 μL/well of 1% BSA in PBS for 2 hours at room temperature. The plates were washed three times with 1×PBST and 70 μL/well supernatant were added. The plates were incubated at room temperature for 2 hours with shaking and washed three times with 1×PBST. 25 μL/well of biotin labeled anti-IL-12(p40/p70) detection antibody (100 ng/mL) in PBS with 1% BSA was added and the plates were incubated at room temperature for 2 hours with shaking. After washing three times with 1×PBST, 25 μL/well of streptavidin-HRP (1:200) in PBS with 1% BSA was added and the plates were incubated at room temperature for 20 minutes with shaking. The plates were washed three times with 1×PBST and 25 μL/well of Super Signal ELISA Pico Chemiluminescent Substrate were added. The plates were read with a luminometer, and the chemiluminescence values were entered into Athena (Rigel) for curve fitting, EC50 calculation, and database storage.

Another assay concerns IL23-p19. Put plainly: Compound screening using DC cells: LPS-induced IL-23 (p19/p40) ELISA in IFNγ-primed dendritic cells differentiated from human PBMC. It is filed as cell-based. The following applies: Dendritic cell, human PBMC-derived dendritic cells, LPS 1 μg/ml, 18 hours, 10 pt. How it is done: Compound Screening Using DC Cells
Human PBMC cells (400 million) obtained from the vendor were transferred into a T-175 flask containing 15 ml RPMI media (10% FBS) and incubate for 2 hours at 37° C. After 2 hours, the media including floating cells was aspirated out carefully and 12 ml of fresh RPMI media (10% FBS) containing GMCSF (100 ng/ml) and IL4 (20 ng/ml) was added, and the flask was kept in a 37° C. incubator for 7 days.
After 3 days, fresh GMCSF (100 ng/ml) and IL4 (20 ng/ml) were added to the flask and the incubation continued. After 7 days, the fully differentiated cells were harvested by spinning down (1200 rpm/5 min) and aspirating the media. The cells were suspended in fresh RPMI media (10% FBS) containing 50 ng/ml IFNγ (1000 U/ml) and then plated (50K/well in 100 μl) onto a white clear bottom 96 well plate and left in a 37° C. incubator for 24 hours.
After 24 hours incubation, 100 μl of RPMI media was added containing 2× concentrated test compound per well to the above cell-culture media (final concentration becomes 1×) and the plates were pre-incubated for 1 hour at 37° C. before stimulating with LPS.
After 1 hour compound pre-incubation, 10 μl per well of 20× concentrated LPS solution in RPMI media was added to give a final concentration of 1 μg/ml. The mixture was shaken and incubated the plates at 37° C. for an additional 18 hours.
155 μl of the supernatant was harvested from each well carefully (without the tip touching the bottom of the well) and to the remaining 50 μl/well of the cell culture plate was added 50 μl of Cell Titer Glo reagent. The mixture was incubated for 1-2 minutes on a shaker and the plate was read for luminescence intensity to determine the compound cytotoxicity. The cell culture supernatant collected above was used to carry out IL23 ELISA (65 μl—Supernatant) and IL10 ELISA (90 μl—Supernatant) as described below.
Human IL-23 (p19/p40) ELISA Protocol (e-Biosciences)
To 10.5 ml PBS add 50 μl of anti-IL23 (p19) was added capture antibody (2.5 μg/ml). The mixture was mixed well and 100 μl of the coating solution was added to each well of the 96 well white plates from Pierce. The wells were covered and incubated overnight at 4° C.
The anti-IL23 (p19)-antibody-coated plates were washed 2× using TBST (use plate washer) and blocked using 200 μl of 0.5% Casein for 1.5-2 hours at room temperature with shaking.
The plates were washed 2× using TBST and the supernatant was transferred (65 μl/well) to the above pre-blocked/IL23(p19)-antibody-coated 96 well plate, and incubated at room temperature for 1.5 hours with shaking.
The plates were washed 4× using TBST (plate washer) and 100 μl/well detection antibody solution prepared from 2 μl of biotin labeled anti-IL-12 (p40/p70) antibody in 11 ml 1% BSA/PBS solution (I-5000 dilution) was added. The plates were incubated for 1 hour with shaking at Room temperature.
Again, the plates were washed 4× with TBST and 100 μl of HRP labeled Streptavidin (R&D Systems) solution (10 μl/10 ml 1% BSA solution) was added, and the plates were incubated at room temperature for another 45 minutes with shaking.
After 45 minutes, the plates were washed with TBST 4× and 100 ul/well Super Signal ELISA Pico Chemiluminescent Substrate from Pierce (3.5 ml A+3.5 ml B+3.5 ml MQ water) was added. The plates were shaken for 1-2 minutes then read on a plate reader.
In general terms: ELISA stands for enzyme-linked immunosorbent assay.

As a reminder, the EC50 is the concentration at which the effect is half-maximal.

Turning to `Nc1ccc(-c2ccc(C(=O)Nc3cc4oc(N5CCOCC5)nc4cc3N3CCCCC3)o2)cn1` [Compound I-1, 5-(6-aminopyridin-3-yl)-N-(2-morpholino-5-(piperidin-1-yl)benzo[d]oxazol-6-yl)furan-2-carboxamide], the EC50 in the assay on IL23p19 came to 0.898 µM; in the assay on IL23-p19, 4.73 µM.
In the case of `O=C(Nc1cc2oc(N3CCOCC3)nc2cc1N1CCCCC1)c1ccc(-c2cn[nH]c2)o1` [Compound I-3, N-(2-morpholino-5-(piperidin-1-yl)benzo[d]oxazol-6-yl)-5-(1H-pyrazol-4-yl)furan-2-carboxamide], the values for the EC50 in the assay on IL23p19 and with IL23-p19 were 0.0314 µM and 0.0391 µM, respectively.
As to `O=C(Nc1cc2oc(N3CCOCC3)nc2cc1N1CCCCC1)c1ccc(-c2cc[nH]n2)o1` [Compound I-4, N-(2-morpholino-5-(piperidin-1-yl)benzo[d]oxazol-6-yl)-5-(1H-pyrazol-3-yl)furan-2-carboxamide], the EC50 with IL23p19 turned out to be 0.901 µM; in the assay on IL23-p19, 12.1 µM.
As for `Nc1ccc(-c2ccc(C(=O)Nc3cc4sc(N5CCOCC5)nc4cc3N3CCCCC3)o2)cn1` [Compound I-5, 5-(6-aminopyridin-3-yl)-N-(2-morpholino-5-(piperidin-1-yl)benzo[d]thiazol-6-yl)furan-2-carboxamide], the results for the EC50 in the assay on IL23p19 and with IL23-p19 were 0.432 µM and 0.257 µM, respectively.
For the compound `O=C(Nc1cc2sc(N3CCOCC3)nc2cc1N1CCCCC1)c1ccc(-c2cnc3[nH]ccc3c2)o1` [Compound I-6, N-(2-morpholino-5-(piperidin-1-yl)benzo[d]thiazol-6-yl)-5-(1H-pyrrolo[2,3-b]pyridin-5-yl)furan-2-carboxamide], the EC50 was determined as 40.5 µM with IL23p19 and 14 µM in the assay with IL23-p19.
Take `O=C(Nc1cc2sc(N3CCOCC3)nc2cc1N1CCCCC1)c1ccc(-c2cn[nH]c2)o1` [Compound I-7, N-(2-morpholino-5-(piperidin-1-yl)benzo[d]thiazol-6-yl)-5-(1H-pyrazol-4-yl)furan-2-carboxamide]: the results for the EC50 with IL23p19 and in the assay on IL23-p19 were 0.026 µM and 0.0136 µM, respectively.
In the case of `O=C(Nc1cc2sc(N3CCOCC3)nc2cc1N1CCCCC1)c1ccc(-c2cc[nH]n2)o1` [Compound I-8, N-(2-morpholino-5-(piperidin-1-yl)benzo[d]thiazol-6-yl)-5-(1H-pyrazol-3-yl)furan-2-carboxamide], the EC50 in the assay on IL23p19 is 0.614 µM.
In the case of `Cc1cc(-c2ccc(C(=O)Nc3cc4sc(N5CCOCC5)nc4cc3N3CCCCC3)o2)ccn1` [Compound I-9, 5-(2-methylpyridin-4-yl)-N-(2-morpholino-5-(piperidin-1-yl)benzo[d]thiazol-6-yl)furan-2-carboxamide], the EC50 came to 52.1 µM in the assay with IL23p19 and 0.897 µM in the assay with IL23-p19.
As to `Nc1ccc(-c2nc(C(=O)Nc3cc4oc(N5CCOCC5)nc4cc3N3CCCCC3)cs2)cn1` [Compound I-11, 2-(6-aminopyridin-3-yl)-N-(2-morpholino-5-(piperidin-1-yl)benzo[d]oxazol-6-yl)thiazole-4-carboxamide], the EC50 in the assay on IL23p19 stood at 228 µM.
Take `O=C(Nc1cc2oc(N3CCOCC3)nc2cc1N1CCCCC1)c1csc(-c2cc[nH]n2)n1` [Compound I-13, N-(2-morpholino-5-(piperidin-1-yl)benzo[d]oxazol-6-yl)-2-(1H-pyrazol-3-yl)thiazole-4-carboxamide]: in the assay on IL23p19, the EC50 worked out at 2.93 µM.
In the case of `Cc1cc(-c2nc(C(=O)Nc3cc4oc(N5CCOCC5)nc4cc3N3CCC(F)CC3)cs2)ccn1` [Compound I-26, N-(5-(4-fluoropiperidin-1-yl)-2-morpholinobenzo[d]oxazol-6-yl)-2-(2-methylpyridin-4-yl)thiazole-4-carboxamide], the EC50 in the assay with IL23p19 is 1.18 µM.
Still for that read-out and setting: in the case of `Cc1cc(-c2nc(C(=O)Nc3cc4oc(N5CCOCC5)nc4cc3N3CCC(F)(F)CC3)cs2)ccn1` [Compound I-30, N-(5-(4,4-difluoropiperidin-1-yl)-2-morpholinobenzo[d]oxazol-6-yl)-2-(2-methylpyridin-4-yl)thiazole-4-carboxamide] it was 43.5 µM; in that of `Cc1cc(-c2ccc(C(=O)Nc3cc4oc(N5CCCCC5)nc4cc3N3CCCCC3)o2)ccn1` [Compound I-33, N-(2,5-di(piperidin-1-yl)benzo[d]oxazol-6-yl)-5-(2-methylpyridin-4-yl)furan-2-carboxamide], 4450 µM.
Still for that read-out and setting: the value for `Nc1ccc(-c2nc(C(=O)Nc3cc4oc(N5CCCCC5)nc4cc3N3CCCCC3)cs2)cn1` [Compound I-34, 2-(6-aminopyridin-3-yl)-N-(2,5-di(piperidin-1-yl)benzo[d]oxazol-6-yl)thiazole-4-carboxamide] was 8.32 µM.
On to `O=C(Nc1cc2oc(N3CCCCC3)nc2cc1N1CCCCC1)c1csc(-c2cc[nH]n2)n1` [Compound I-36, N-(2,5-di(piperidin-1-yl)benzo[d]oxazol-6-yl)-2-(1H-pyrazol-3-yl)thiazole-4-carboxamide], for which the EC50 in the assay on IL23p19 turned out to be 5.24 µM.
Take `Cc1cc(-c2nc(C(=O)Nc3cc4oc(N5CCCCC5)nc4cc3N3CCCCC3)cs2)ccn1` [Compound I-37, N-(2,5-di(piperidin-1-yl)benzo[d]oxazol-6-yl)-2-(2-methylpyridin-4-yl)thiazole-4-carboxamide]: the EC50 with IL23p19 was found to be 23.1 µM.
